Test results from patent publication US8569324B2, “Potentiator for radiation therapy comprising pyridine derivative as active ingredient” (Taiho Pharmaceutical Co., Ltd., priority 2005, dated 2013).
Several values for one entry are separate records, joined by “and”; a condition that tells them apart may be missing. Equal entries are not always repeated.

Experiments:
[1] = tested on: human lung cancer LC-11 strain; assay: Comparative Example 1: radiotherapy enhancing effect of cisplatin on human lung cancer LC-11 strain transplanted into nude mice; format: in vivo, BALB/cA-nu mouse
Description: (a) Preparation of test solution I: The cisplatin solution (0.5 mg/mL) available from Bristol-Myers Squibb Company was used as it was. 0.1 mL per mouse body weight 10 g was administered for the dose of cisplatin 5 mg/kg, and […] per mouse body weight 10 g was administered for the dose of 7.5 mg/kg. (b) Method for radiation (X-ray) irradiation: Local irradiation was performed on a human tumor strain transplanted into the right femoral region of the mouse using MBR-1505R Type 2 X-ray Irradiation System of Hitachi Medical Corporation under an irradiation condition (irradiation position) so that exposure per mouse should be 2 Gy or 5 Gy. To prevent systemic irradiation, mice were placed in a storage box made of lead so that only their right leg should be exposed to radiation. (c) Test: The human lung cancer LC-11 strain subcutaneously transplanted into the back of a BALB/cA-nu mouse and grown beforehand were removed, cut into small fragments of about 2×2 mm^2 with scissors in physiological saline, and subcutaneously transplanted into the right femoral region of 5 to 6-week-old mice of the same strain with a transplantation needle. The mice were bred for at least 1 to 2 weeks and divided into the control group, the radiation alone group, the drug alone group, and the drug plus radiation group, so that the tumor volume and standard deviation (S.D.) in each group (n=6 per group) should be as uniform as possible. Then, drug administration and X-ray irradiation were initiated. For the drug treatment group, 0.1 mL per body weight 10 g of a cisplatin solution for the dose of 5 mg/kg or […] per body weight 10 g of this solution for the dose of 7.5 mg/kg was administered into the caudal vein on day 1. The radiation group was irradiated with 2 Gy of X-ray in the above-described manner on day 1, at the start of the test, and on day 8. For tumor-bearing mice in the control group (non-radiation/non-drug treatment group) and the radiation alone group, physiological saline was administered into the caudal vein on day 1. By using the above-mentioned numerical formula 1, the tumor volume of each mouse in each group was obtained prior to the start of treatment experiment, on days 3, 5, 8 (1 week later) and 11 during the treatment period, and days 15 (2 weeks later), 18, 22 (3 weeks later), 25, and 29 (4 weeks later) after completion of treatment. A relative tumor volume (RTV) to the tumor volume at the start of the test was obtained for each mouse. Then, the mean tumor growth inhibition rate (IR; %) in each treatment group based on the control group was obtained by using the above-mentioned numerical formula 2 on days 15, at the end of the treatment period, and 29, at 4 weeks later, and shown in Table 3.

normal skin = assay: Test Example 3: effect of irradiation on disorders of normal tissues (normal skin), severity by method of Douglas et al.; format: in vivo, BALB/cA-nu mice; conditions: CDHP 50 mg/kg/day oral 7 days + 20 Gy X-ray on days 1 and 3; 6 animals; radiation alone: grades 1.5 or higher in all 6 after day 14
Description: (a) Preparation of test solution: CDHP was suspended in a 0.5% (W/V) HPMC solution at a concentration of 5.0 mg/mL, and the suspension was stirred with a stirrer at room temperature for about 10 minutes and ultrasonicated with ice cooling for about 5 minutes to obtain a drug solution of 50 mg/kg/day as CDHP. (b) Method for X-ray irradiation: Local irradiation was performed on the right femoral region of the mouse using MBR-1505R Type 2 X-ray Irradiation System of Hitachi Medical Corporation under an irradiation condition (irradiation position) so that exposure per mouse should be 20 Gy. To prevent systemic irradiation, mice were placed in a storage box made of lead so that only their right leg should be exposed to radiation. (c) Test: Six to 8-week-old BALB/cA-nu mice were divided into the control group, the radiation alone group, and the drug plus radiation group, each consisting of 6 animals, and drug administration and X-ray irradiation were initiated. […] (d) Determination of severity of skin disorders: From 7 days after the end of the test, severity of skin disorders in the femoral region caused by irradiation was determined by the method of Douglas, et al. (Douglas B G, et al.: The effect of multiple small doses of X-rays on skin reactions in the mice and a basic interpretation. Radiation Res., 66: 401-426, 1976.).

[2] = tested on: human lung cancer strain (LC-11); assay: Test Example 1: radiotherapy enhancing effect of CDHP on human lung cancer strain LC-11 transplanted into nude mice; format: in vivo, BALB/cA-nu mouse
Description: (a) Preparation of test solution: 5-Chloro-2,4-dihydroxypyridine (CDHP) was suspended in a 0.5% (W/V) hydroxypropylmethylcellulose (HPMC) solution at concentrations of 0.25 and 2.5 mg/mL, and the suspension was stirred with a stirrer at room temperature for about 10 minutes and ultrasonicated for about 5 minutes with ice cooling to obtain a drug solution of 2.5 or 25 mg/kg/day as CDHP. (b) Method for Radiation (X-ray) irradiation: Local irradiation was performed on a human tumor strain transplanted into the right femoral region of the mouse using MBR-1505R Type 2 X-ray Irradiation System of Hitachi Medical Corporation under an irradiation condition (irradiation position) so that exposure per mouse should be 2 Gy or 5 Gy. To prevent systemic irradiation, mice were placed in a storage box made of lead so that only their right leg should be exposed to radiation. (c) Test: The human lung cancer strain (LC-11) subcutaneously transplanted into the back of a BALB/cA-nu mouse and grown beforehand were removed, cut into small fragments of about 2×2 mm^2 with scissors in physiological saline, and subcutaneously transplanted into the right femoral region of 5 to 6-week-old mice of the same strain with a transplantation needle. The mice were bred for at least 1 to 2 weeks and divided into the control group, the radiation alone group, the drug alone group, and the drug plus radiation group, so that the tumor volume and standard deviation (S.D.) in each group (n=6 per group) should be as uniform as possible. Then, drug administration and X-ray irradiation were initiated. The drug treatment group was orally administered with 0.1 mL each of the above-described CDHP drug solution per body weight 10 g once daily for 14 consecutive days using a sonde for oral administration. The radiation group was irradiated with 2 Gy or 5 Gy of X-ray within about 1 hour after administration of the CDHP drug solution in the above-described manner on day 1, at the start of the test, and on day 8. Tumor-bearing mice in the control group (non-radiation/non-drug treatment group) and the radiation alone group were orally administered with 0.5% HPMC solution alone in the same manner for 14 consecutive days.
By using the following numerical formula 1, the tumor volume of each mouse in each group was obtained prior to the start of treatment experiment, on days 3, 5, 8 (1 week later) and 11 during the treatment period, and days 15 (2 weeks later), 18, 22 (3 weeks later), 25, and 29 (4 weeks later) after completion of the treatment. A relative tumor volume (RTV) to the tumor volume at the start of the test was obtained for each mouse. […] The mean tumor growth inhibition rate (IR; %) in each treatment group based on the control group was obtained by using the following numerical formula 2 on days 15, at the end of the treatment period, and 29 at 4 weeks later and shown in Table 1.

[3] = tested on: human lung cancer strain (LC-11); assay: Test Example 2: radiotherapy enhancing effect of CNDP on human lung cancer strain LC-11 transplanted into nude mice; format: in vivo, BALB/cA-nu mouse
Description: (a) Preparation of test solution: 3-Cyano-2,6-dihydroxypyridine (CNDP) was suspended in a 0.5% (W/V) hydroxypropylmethylcellulose (HPMC) solution at concentrations of 2.5 and 5.0 mg/mL, and the suspension was stirred with a stirrer at room temperature for about 10 minutes and ultrasonicated for about 5 minutes with ice cooling to obtain a drug solution of 25 or 50 mg/kg/day as CNDP. (b) Method for radiation (X-ray) irradiation: Local irradiation was performed on a human tumor strain transplanted into the right femoral region of the mouse using MBR-1505R Type 2 X-ray Irradiation System of Hitachi Medical Corporation under an irradiation condition (irradiation position) so that exposure per mouse should be 2 Gy or 5 Gy. To prevent systemic irradiation, mice were placed in a storage box made of lead so that only their right leg should be exposed to radiation. (c) Test: The human lung cancer strain (LC-11) subcutaneously transplanted into the back of a BALB/cA-nu mouse and grown beforehand were removed, cut into small fragments of about 2×2 mm^2 with scissors in physiological saline, and subcutaneously transplanted into the right femoral region of 5 to 6-week-old mice of the same strain with a transplantation needle. The mice were bred for at least 1 to 2 weeks and divided into the control group, the radiation alone group, the drug alone group, and the drug plus radiation group, so that the tumor volume and standard deviation (S.D.) in each group (n=6 per group) should be as uniform as possible. Then, drug administration and X-ray irradiation were initiated. The drug treatment group was orally administered with 0.1 mL of the above-described 5 mg/mL CNDP drug solution per body weight 10 g once daily for 14 consecutive days using a sonde for oral administration. The radiation group was irradiated with 2 Gy or 5 Gy of X-ray within about 1 hour after administration of the CNDP drug solution in the above-described manner on day 1, at the start of the test, and on day 8. Tumor-bearing mice in the control group (non-radiation/non-drug treatment group) and the radiation alone group were orally administered with […] solution alone in the same manner for 14 consecutive days.
By using the above-mentioned numerical formula 1, the tumor volume of each mouse in each group was obtained prior to the start of treatment experiment, on days 3, 5, 8, (1 week later) and 11 during the treatment period, and day 15 (2 weeks later) after completion of treatment. A relative tumor volume (RTV) to the tumor volume at the start of the test was obtained for each mouse (FIG. 1).

## [NH2][Pt]([NH2])([Cl])[Cl] [CDDP, cisplatin]
[1]; CDDP 5.0 mg/kg caudal vein on day 1 + X-ray 2 Gy on days 1 and 8, Day 15
  IR (%) Day 15: 53.8%
[1]; CDDP 5.0 mg/kg caudal vein on day 1 + X-ray 2 Gy on days 1 and 8, Day 29
  IR (%) Day 29: 46.8%
[1]; CDDP 5.0 mg/kg caudal vein on day 1, no X-ray, Day 15
  IR (%) Day 15: 39.9%
[1]; CDDP 5.0 mg/kg caudal vein on day 1, no X-ray, Day 29
  IR (%) Day 29: 45.6%
[1]; CDDP 5 mg/kg or 7.5 mg/kg and 2-Gy X-ray irradiation
  enhancement of antitumor effects by combination compared with CDDP alone: did not significantly enhance antitumor effects
[1]; CDDP 7.5 mg/kg caudal vein on day 1 + X-ray 2 Gy on days 1 and 8, Day 15
  IR (%) Day 15: 54.6%
[1]; CDDP 7.5 mg/kg caudal vein on day 1 + X-ray 2 Gy on days 1 and 8, Day 29
  IR (%) Day 29: 66.8%
[1]; CDDP 7.5 mg/kg caudal vein on day 1, no X-ray, Day 15
  IR (%) Day 15: 55.8%
[1]; CDDP 7.5 mg/kg caudal vein on day 1, no X-ray, Day 29
  IR (%) Day 29: 60.2%
[1]; series of examinations using human lung cancer LC-11 strain
  radiotherapy enhancing effect: very weak

## Oc1cc(O)c(Cl)cn1 [CDHP, 5-chloro-2,4-dihydroxypyridine]
Normal skin
  severity of skin disorders in the femoral region caused by irradiation: mild disorders (redness, swelling) were observed only in 1 or 2 mice
[2]; CDHP 2.5 mg/kg oral once daily 14 days + X-ray 2 Gy on days 1 and 8, Day 15
  Tumor growth inhibition rate IR(%) Day 15: 41%
[2]; CDHP 2.5 mg/kg oral once daily 14 days + X-ray 2 Gy on days 1 and 8, Day 29
  Tumor growth inhibition rate IR(%) Day 29: 25% and 24.7* %
[2]; CDHP 2.5 mg/kg oral once daily 14 days, X-ray 0 Gy, Day 15
  Tumor growth inhibition rate IR(%) Day 15: 17.2%
[2]; CDHP 2.5 mg/kg oral once daily 14 days, X-ray 0 Gy, Day 29
  Tumor growth inhibition rate IR(%) Day 29: −7.9%
[2]; CDHP 25 mg/kg oral once daily 14 days + X-ray 2 Gy on days 1 and 8, Day 15
  Tumor growth inhibition rate IR(%) Day 15: 57% and 57.2%
[2]; CDHP 25 mg/kg oral once daily 14 days + X-ray 2 Gy on days 1 and 8, Day 29
  Tumor growth inhibition rate IR(%) Day 29: 46% and 46.3** %
[2]; CDHP 25 mg/kg oral once daily 14 days, X-ray 0 Gy, Day 15
  Tumor growth inhibition rate IR(%) Day 15: 9.7%
[2]; CDHP 25 mg/kg oral once daily 14 days, X-ray 0 Gy, Day 29
  Tumor growth inhibition rate IR(%) Day 29: −15.3%
[2]; CDHP 2.5 and 25 mg/kg with 2-Gy X-ray irradiation in combination
  enhancement of the effect of X-ray: significantly enhanced the effect of X-ray
[2]; CDHP alone, both doses 2.5 and 25 mg/kg
  antitumor effect of drug alone: hardly showed any antitumor effect
[2]; mice receiving CDHP and X-ray in combination
  serious adverse drug reactions (body weight loss, skin disorders): no serious adverse drug reactions such as body weight loss and skin disorders were observed

## N#Cc1ccc(O)nc1O [CNDP, 3-cyano-2,6-dihydroxypyridine]
[3]; CNDP 25 mg/kg oral once daily + X-ray 2 Gy on days 1 and 8, Day 11
  Tumor growth inhibition rate (IR) (%) Day 11: 44.7%
[3]; CNDP 25 mg/kg oral once daily + X-ray 2 Gy on days 1 and 8, Day 15
  Tumor growth inhibition rate IR(%) Day 15: 54.6%
[3]; CNDP 50 mg/kg oral once daily 14 days, X-ray 0 Gy, Day 11
  Tumor growth inhibition rate (IR) (%) Day 11: 1.8%
[3]; CNDP 50 mg/kg oral once daily 14 days, X-ray 0 Gy, Day 15
  Tumor growth inhibition rate IR(%) Day 15: 8.2%
[3]; CNDP 50 mg/kg oral once daily + X-ray 2 Gy on days 1 and 8, Day 11
  Tumor growth inhibition rate (IR) (%) Day 11: 44.4%
[3]; CNDP 50 mg/kg oral once daily + X-ray 2 Gy on days 1 and 8, Day 15
  Tumor growth inhibition rate IR(%) Day 15: 60.4%
[3]; CNDP 25 and 50 mg/kg with 2-Gy X-ray irradiation in combination
  enhancement of the antitumor effect of X-ray: significantly increased the antitumor effect of 2-Gy X-ray
[3]; CNDP alone, high dose of 50 mg/kg
  antitumor effect of drug alone: hardly showed any antitumor effect
[3]; mice receiving CNDP and X-ray in combination
  serious adverse drug reactions (body weight loss, skin disorders): no serious adverse drug reactions such as body weight loss and skin disorders were observed
